Key:
U87-MG = assay: Glioma orthotopically xenografted in nude mice, MRI tumour volume; assay type: in vivo; details: 3 mg/kg/inj IV, (Q1D×3)×5W, MRI at D23, mean of 4 values
Experimental: The test compound was dissolved in ethanol (0.027 mL/mg compound) and vortexed for 20 min until the solution was clear. Ethanolic solutions were aliquoted as appropriate and stored at −20° C.
The test substance and control vehicle were administered intravenously (IV, bolus) by injection into the caudal vein of the test mice. An injection volume of 10 mL/kg was used, based on the most recent body weight of mice.
The cell line used for the study was U87-MG, a glioblastoma cell line initiated by J. Ponten from a […] glioblastoma from a person (Poten et al., 1968).
Mice were stereotaxically injected with U87-MG cells at D, 24 to 48 hours after a whole body irradiation with a γ-source (2.5 Gy, Co^60, INRA BRETENIERE, Dijon). For the stereotaxic injection of tumour cells, mice were anesthetised by an intraperitoneal injection of Ketamine 100 mg/kg (Ketamine500®, Ref 043KET204, Centravet, France) and Xylazine 5 mg/kg (Rompun®, Ref 002ROM001, Centravet, France) in 0.9% NaCl solution at 10 mL/kg/inj. […]
After tripilot acquisitions, a turboRare T2 weighted sequence was performed. […] The tumour volume was determined by manually drawing a region of interest (ROI) around the tumour in each slice and by summation of all the surfaces.
Additionally the MRI analysis was used to calculate the average calculated tumour volume per treatment group, the results are summarised in Table 13 below. […]

Caco-2 cells = assay: Caco-2 permeation assay; details: 0.01 mM
Experimental: Confluent Caco-2 cells (Li, A. P., 1992; Grass, G. M., et al., 1992, Volpe, D. A., et al., 2001) in a 24 well Corning Costar Transwell format were provided by In Vitro Technologies Inc. (IVT Inc., Baltimore, Md., USA). The apical chamber contained 0.15 mL Hank's balanced buffer solution (HBBS) pH 7.4, 1% DMSO, 0.1 mM Lucifer Yellow. The basal chamber contained 0.6 mL HBBS pH 7.4, 1% DMSO. Controls and tests were incubated at 37° C. in a humidified incubator, shaken at 130 rpm for 1 h. Lucifer Yellow permeates via the paracellular (between the tight junctions) route only, a high Apparent Permeability (Papp) for Lucifer Yellow indicates cellular damage during assay and all such wells were rejected. […] Compounds were tested in a uni- and bi-directional format by applying compound to the apical or basal chamber (at 0.01 mM). Compounds in the apical or basal chambers were analysed by HPLC-MS (Method A, see Materials & Methods). Results were expressed as Apparent Permeability, Papp, (nm/s) and as the Flux Ratio (A to B versus B to A).
[formula] • Volume Acceptor: 0.6 ml (A>B) and 0.15 ml (B>A) • Area of monolayer: 0.33 cm2 • Δtime: 60 min
A positive value for the Flux Ratio indicates active efflux from the apical surface of the cells.

[1] = Pharmacokinetic analysis Protocol 2 (blood and brain); assay type: in vivo, female Balb C mice; details: female, Balb C, mouse; for Kp: brain / whole blood; for AUC: whole blood, blood, 0-24 h
Experimental: To prepare the dosing solution, 5 mg test compound was dissolved in 100 μL ethanol resulting in a compound solution of 50 mg/mL. The solution was then diluted to 2 mg/mL by adding approximately 2.4 mL 0.15 M NaCl (0.9% w/v saline), 5% v/v Tween 20 and 5% v/v PEG 400 (final ethanol conc. 4% v/v).
A single dose of 10 mg/kg p.o. or 2 mg/kg i.v. of test compound at a concentration of 10 mg/kg p.o or 2 mg/kg i.v. was administered to groups of 3 female Balb C mice. At 5 min, 15 min, 60 min, 4 h, 8 h and 24 h, groups were sacrificed and whole blood samples of approximately 0.2 mL were retrieved in EDTA to give a final concentration of 0.5 mM, additionally the brains were removed.

[2] = Pharmacokinetic analysis Protocol 1 (blood and brain); details: female, CD1, mouse, 3 mg/kg
Experimental: The test compounds were prepared in a vehicle consisting of 4% Ethanol, 5% Tween-20, 5% polyethyleneglycol 400 in 0.15M NaCl. A single dbse of 10 mg/kg p.o. or 3 mg/kg i.v. was administered to groups of female CD1 mice (3 mice for each compound per time point). At 0 min, 4 min, 15 min, 1 h, 4 h, and 24 h groups were sacrificed and the blood and the brain were collected from each mouse for further analysis.
The brain samples were snap frozen in liquid nitrogen and stored at −20° C. A minimum of 0.2 mL of whole blood from each animal was collected in tubes containing ethylene diamine tetra-acetic acid (EDTA) as anticoagulant, thoroughly mixed, and stored at −20° C.
Analysis was performed by ASI Limited, (St George's Hospital Medical School, London). The concentration of the test compound in the blood and brain samples supplied was determined by HPLC with MS detection. Control, test compound free, blood samples were obtained from Harlan Sera-Lab Limited, (Loughborough, England). Time zero brain samples were supplied as control, test compound free, brain samples.
One hemisphere of each brain was homogenized with 5 mL water.
The control or test sample of mouse brain or blood (0.05 mL), internal standard solution (0.1 mL), 5% Zinc sulphate solution (0.5 mL), and acetone (0.5 mL) were pipetted into a 2 mL polypropylene tube (Sarstedt Limited, Beaumont Leys, Leicester, UK) and the contents were then mixed for a minimum of 5 minutes (IKA-Vibrax-VXR mixer, Merck (BDH) Limited, Poole Dorset, UK). The tubes were then centrifuged in a microfuge for a minimum of 2 minutes. The solvent layer was decanted into a 4.5 mL polypropylene tube containing sodium hydroxide (0.1M, 0.1 mL) and methyl-tert-butyl ether (MTBE, 2 mL). The tube was then mixed for a minimum of 5 minutes (IKA-Vibrax-VXR mixer) and then centrifuged at 3500 rpm for 5 minutes. The solvent layer was transferred to a 4.5 mL conical polypropylene tube, placed in a SpeedVac® and evaporated to dryness.
The dried extracts were reconstituted with 0.15 mL 80% methanol and mixed for a minimum of 5 minutes (IKA-Vibrax-VXR mixer) and centrifuged at 3500 rpm for 5 minutes. The extract was transferred to auto sampler tubes (NLG Analytical, Adelphi Mill, Bollington, Cheshire, UK) and placed into the auto-sampler tray which was set at ambient temperature. The auto-sampler was programmed to inject a 0.03 mL aliquot of each extract onto the analytical column.
The AUC for each compound in blood or in brain tissue was calculated using Kinetica 4.4 (InnaPhase Corporation), using a non-compartmental model and the trapezoidal method for AUC calculation.
The partition coefficient (Ri) for each compound after p.o. and i.v. administration was calculated as shown below:
The partition coefficient (R) for each compound after i.v. administration was calculated as shown below:

Compound	average calculated tumour volume, Day 23 (mm^3) (U87-MG)	Caco-2: Efflux Ratio (Caco-2 cells; bi-directional format)	Caco-2: Papp (Caco-2 cells; pH 7.4, 1 h)	Kp ([1]; intravenous, PK protocol 2, 2 mg/kg i.v., read-out: Ri i.v. (partition coefficient))	Kp ([1]; oral, PK protocol 2, 10 mg/kg p.o., read-out: Ri p.o. (partition coefficient))	AUC ([1]; iv, PK protocol 2, 2 mg/kg i.v., read-out: AUCBLOOD i.v.)	AUC ([1]; po, PK protocol 2, 10 mg/kg p.o., read-out: AUCBLOOD p.o.)	Kp ([2]; brain / whole blood, intravenous)	AUC ([2]; whole blood, iv)
COC1CC2CCC(C)C(O)(O2)C(=O)C(=O)N2CCCCC2C(=O)OC(C(C)CC2CCC(O)CC2)CC(=O)C(C)C=C(C)C(O)C(OC)C(=O)C(C)CC(C)C=CC=CC=C1C (stereo not drawn) [39-desmethoxyrapamycin]	1.25 mm^3	15	2.9 ×10⁻⁶ cm/s	–	–	–	–	–	–
CO[C@H]1C[C@@H]2CC[C@@H](C)[C@@](O)(O2)C(=O)C(=O)N2CCCC[C@H]2C(=O)O[C@H]([C@H](C)C[C@@H]2CC[C@@H](O)[C@H](OC)C2)CC(=O)[C@H](C)/C=C(\C)[C@@H](O)[C@@H](OC)C(=O)[C@H](C)C[C@H](C)/C=C/C=C/C=C/1C [Rapamycin]	–	–	–	0.255	0.066	24900 ng·h/mL	25200 ng·h/mL	1.13	10800 ng·h/mL

Reference: patent US20100061994A1, “MEDICAL USES OF 39-DESMETHOXYRAPAMYCIN AND ANALOGUES THEREOF” (priority 2005, published 2010)
